This is an account of results in PMC9999251, “Pyrazole-based lamellarin O analogues: synthesis, biological evaluation and structure–activity relationships” (RSC Advances, 2023).

Molecules are shown by their SMILES.

Usually GI50 stands for the concentration that inhibits growth by half. One may read the chromatographic logP as a lipophilicity value derived from retention on a column. Low readings indicate lower lipophilicity, high ones higher lipophilicity. The melting point is the temperature, or range, at which the solid turns liquid. By fraction unbound is commonly meant the share of the substance not bound to proteins or other matrix. Lower therefore signals little free substance.

The test system of data set [1] is HCT116 cells. In words: Cell viability (MTT assay), HCT116. The data set is classed as cell-based. To be noted: Homo sapiens, HCT-116, 96 h treatment, read-out: GI50 ± SD HCT116. Here is the method: (§1) SW480 (human colon adenocarcinoma, adherent, epithelial, ATCC number: CCL-228), HT29 (human colon adenocarcinoma, adherent, epithelial, ATCC number: HTB-38), and HCT116 (human colon adenocarcinoma, adherent, epithelial-like, ATCC number: CCL-247) cells were maintained in RPMI-1640 medium (Sigma-Aldrich). Medium was supplemented with heat-inactivated FBS (Biowest), penicillin–streptomycin (Sigma; with 10 000 units penicillin and 10 mg streptomycin per mL in 0.9% NaCl) and L-glutamine (Sigma; 200 mM solution). Cell cultures were cultivated at 37 °C, maintaining a humidified atmosphere consisting of 5% CO2. Gibco™ trypsin–EDTA (0.05%) was used for cell passage.
(§2) To evaluate cell viability, SW480, HT29, and HCT116 cells were harvested from culture flasks by trypsinization and seeded into 96-well plates in 4000 cells per well, 3000 cells per well and 4000 cells per well densities, respectively. After 24 h preincubation period, cells were treated in triplicates with nine different doses of each compound (6a–o and 7a–c) for 96 h. After treatment compound solutions were replaced with MTT solution (MTT reagent in PBS, […]) diluted in a 6 : 1 ratio in non-supplemented RPMI-1640 medium and were additionally incubated for 2 h. After incubation, the medium was removed, and formazan product was dissolved in DMSO. Optical densities were measured at 550 nm with TECAN Infinite® M200 PRO microplate reader using a reference wavelength of 690 nm to correct unspecific absorption. The quantity of viable cells was normalized to untreated controls. The GI50 values were calculated from dose–response curves.
Background: Tetrazolium dyes change colour on reduction, which living cells bring about.

The subject of data set [2] is HT29 cells. Nature of the data set: Cell viability (MTT assay), HT29. The data set is classed as cell-based. To be noted: Homo sapiens, HT-29, 96 h treatment, read-out: GI50 ± SD HT29. How it is done:
as §1, §2

Data set [3] in a line: Determination of HPLC–log P. The data set is classed as physicochemical. The following applies: reversed-phase HPLC on apHera C18 column; methanol / 0.01 M phosphate buffer pH 7.4; mean ± SD. How it is done:
HPLC–log P values were determined using Shimadzu HPLC system equipped with apHera C18 column (10 × 6 mm, 5 μm, Supelco, Bellefonte, PA, USA). Each sample was dissolved in the internal standard mixture, consisting of triphenylene (99.9%, Carl Roth) and toluene (≥98%, Sigma-Aldrich). Analysis was performed at 1.5 mL min^−1 flow rate in the linear gradient where mobile phase consisted of methanol and 0.01 M phosphate buffer (pH 7.4). The HPLC–log P values were calculated from the measured retention times using previously published equation.[57]

The test system of data set [4] is SW480 cells. Nature of the data set: Cell viability (MTT assay), SW480. The format is cell-based. The following applies: Homo sapiens, SW480, 96 h, 96 h treatment, read-out: GI50 ± SD SW480. How it is done: as §1, §2
In data set [5] the target is T1, human serum albumin (Homo sapiens, UniProt P02768).
T1 construct: purchased Chiral Technologies, DAICEL Group, Europe SAS, France CHIRALPAK®HAS (50 × 3 mm, 5 μm)
T1 sequence (P02768 25-609): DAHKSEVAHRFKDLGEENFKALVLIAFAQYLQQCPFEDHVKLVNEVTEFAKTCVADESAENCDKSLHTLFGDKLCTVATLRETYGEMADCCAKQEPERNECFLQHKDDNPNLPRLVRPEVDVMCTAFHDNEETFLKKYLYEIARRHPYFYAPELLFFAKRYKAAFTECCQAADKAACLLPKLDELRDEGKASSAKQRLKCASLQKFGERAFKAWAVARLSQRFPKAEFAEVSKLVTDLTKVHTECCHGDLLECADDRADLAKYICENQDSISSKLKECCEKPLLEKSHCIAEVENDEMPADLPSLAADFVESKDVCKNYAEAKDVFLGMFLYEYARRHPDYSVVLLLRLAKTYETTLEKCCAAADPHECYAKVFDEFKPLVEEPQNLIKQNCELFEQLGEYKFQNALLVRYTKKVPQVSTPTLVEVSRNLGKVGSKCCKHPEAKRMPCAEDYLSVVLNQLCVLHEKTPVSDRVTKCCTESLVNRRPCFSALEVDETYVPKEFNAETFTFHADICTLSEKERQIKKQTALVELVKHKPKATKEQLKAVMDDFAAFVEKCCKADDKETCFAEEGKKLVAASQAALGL
Nature of the data set: Plasma protein binding (PPB), HPLC on albumin-bound stationary phase. The format is in vitro ADME. To be noted: pH 7.4, binding to human serum albumin, HPLC method. Here is the method:
Retention times of the analytes were measured with Shimadzu HPLC system on the CHIRALPAK®HAS stationary phase (50 × 3 mm, 5 μm, Chiral Technologies, DAICEL Group, Europe SAS, France). The mobile phase A consisted of 50 mM aqueous ammonium acetate buffer (pH 7.4) and phase B of 2-propanol according to Valko et al.[65] Analysis was performed at prolonged 1 mL min^−1 flow rate in the linear gradient. Retention capacity factors (k′) were calculated by using DMSO or a substance with 0% HAS binding for systems' dead time (Rt0). The system was calibrated by injecting the reference compounds: acetylsalicylic acid (CAS 69-72-7), betamethasone (CAS 378-44-9), budesonide (CAS 5133-22-3), carbamazepine (CAS 298-46-4), cimetidine (CAS 51481-61-9), ciprofloxacin (CAS 85721-33-1), indomethacin (CAS 53-86-1), isoniazid (CAS 54-85-3), metronidazole (CAS 443-48-1), nicardipine (CAS 55985-32-5), nizatidine (CAS 76963-41-2) and warfarin (CAS 81-81-2) obtained from Sigma-Aldrich, diclofenac (CAS 15307-86-5) from EMD Chemicals Inc., flumazenil (CAS 78755-81-4) from ABX and ketoprofen (CAS 22071-15-4) from LKT Labs. The logarithmic capacity factors of the references' Rt (log(k′)) on the HSA column were plotted against the %PPB values from literature. The slope and the intercept were used to convert the log(k′) of the compounds (6a, c, f, h, m–o) to %PPB using the regression equation.[66]

Data set [6] concerns HCT116 cells. In words: Cell cycle distribution by flow cytometry (FACS). The format is cell-based, human. The following applies: HCT116, 72 h, lowest concentration of 5 μM. Here is the method: HCT116 cells (40 000 cells per well) were treated with the test compounds (6c, 6m) for 72 h in the concentration range of 5, 10 and 20 μM. After treatment cells were washed with DPBS (Sigma; modified, without calcium chloride and magnesium chloride) and trypsinized using a trypsin–EDTA solution (Gibco™, 0.05%). After additional washing with DPBS, cells were stained at +4 °C overnight using PI/HFS solution (50 μg mL^−1).[67] Samples were then analysed using Guava® easyCyte™ 8HT (Merck Millipore) flow cytometer with Guava Clean 3.1 software. The amount of debris was in the range of 9.2 ± 2.0%.

Data set [7] deals with HCT116 cells. Nature of the data set: Viability staining via Calcein AM/Hoechst/PI, HCT116. To be noted: 20 µM, 24 h (Fig. S134 legend), method block: 4 μM, 96 h. The format is cell-based, human. Here is the method:
(§3) SW480, HT29 and HCT116 cells were seeded in 24-well plates in a cell density of 6000 cells per well and settled for 24 h. […] Cells were stained with propidium iodide (Sigma Aldrich, final concentration 2 μg mL^−1) and Hoechst 33342 (ThermoFisher Scientific, final concentration 0.5 μM) for 60 min and with Calcein AM (Merck, BioReagent, final concentration 50 μM) for 15 min, washed two times with PBS and finally covered with PBS for further analysis. Fluorescence microscopic evaluation was performed on a Evos FL Cell Imaging System (ThermoFisher Scientific).

The test system of data set [8] is HT29 cells. In words: Viability staining via Calcein AM/Hoechst/PI, HT29. The format is cell-based, human. To be noted: 20 µM, 24 h (Fig. S136 legend), method block: 4 μM, 96 h. Here is the method: SW480, HT29 and HCT116 cells were seeded in 24-well plates in a cell density of 6000 cells per well and settled for 24 h. Afterwards cells were treated with 4 μM of test compounds 6a, c, f, h, m–o for 96 h. Cells were stained with propidium iodide (Sigma Aldrich, final concentration 2 μg mL^−1) and Hoechst 33342 (ThermoFisher Scientific, final concentration 0.5 μM) for 60 min and with Calcein AM (Merck, BioReagent, final concentration 50 μM) for 15 min, washed two times with PBS and finally covered with PBS for further analysis. Fluorescence microscopic evaluation was performed on a Evos FL Cell Imaging System (ThermoFisher Scientific).

The test system of data set [9] is SW480 cells. Nature of the data set: Viability staining via Calcein AM/Hoechst/PI, SW480. The data set is classed as cell-based, human. To be noted: 20 µM, 24 h (Fig. S135 legend), method block: 4 μM, 96 h. How it is done:
as §3

Molecule `CCOC(=O)c1c(-c2ccccc2)c(-c2ccccc2)nn1CC(=O)c1ccccc1` [Compound 6a, Ethyl 1-(2-oxo-2-phenylethyl)-3,4-diphenyl-1H-pyrazole-5-carboxylate] came in with a melting point of 112 to 113 °C. Also, the GI50 in data set [1] was determined as 5.46 ± 0.393 µM. In addition, in data set [2], the GI50 is over 20 µM. Moreover, in [3], the chromatographic logP was 4.381 ± 0.002. Moreover, the GI50 in data set [4] is over 20 µM. In addition, in data set [5], the free fraction (fraction unbound) was 0.046.

With `CCOC(=O)c1c(-c2ccccc2)c(-c2ccccc2)nn1CC(=O)c1ccc(F)cc1` [Compound 6c, Ethyl 1-[2-(4-fluorophenyl)-2-oxoethyl]-3,4-diphenyl-1H-pyrazole-5-carboxylate], the melting point lay in the range of 114 to 115 °C. Moreover, in data set [6] (negative control 14.2 ± 1.1%), the G2/M phase worked out at 25.0 ± 0.5%. Also, the G1 phase in data set [6] (negative control 49.5 ± 1.8%) is on record as 63.2 ± 1.4%. The “PI staining (necrosis)” value in [7] is listed as “no involvement of necrosis”. Also, the GI50 in data set [1] was 1.96 ± 0.266 µM. In addition, the 50% growth inhibitory concentration (GI50) in [2] was determined as 4.98 ± 2.62 µM. The same molecule returned a chromatographic logP in data set [3] of 4.453 ± 0.005. Further, the “PI staining (necrosis)” value in data set [8] is recorded as “no involvement of necrosis”. Further, the GI50 in data set [4] came out at 5.52 ± 3.72 µM. Moreover, in data set [9], the “PI staining (necrosis)” value is “no involvement of necrosis”. Besides, the fraction unbound in data set [5] was 0.04.

For the molecule `CCOC(=O)c1c(-c2ccc(OC)cc2)c(-c2ccc(OC)cc2)nn1CC(=O)c1ccccc1` [Compound 6f, Ethyl 3,4-bis(4-methoxyphenyl)-1-(2-oxo-2-phenylethyl)-1H-pyrazole-5-carboxylate], the melting point was in the range of 62 to 63 °C. For the same molecule, in data set [1], the GI50 is 2.29 ± 0.218 µM. The 50% growth inhibitory concentration (GI50) in [2] was over 20 µM. For the same molecule, in data set [3], the chromatographic logP was determined as 4.462 ± 0.005. The GI50 in data set [4] is over 20 µM. Also, the unbound share (fraction unbound) in data set [5] was 0.061.

Take `CCOC(=O)c1c(-c2ccc(OC)cc2)c(-c2ccc(OC)cc2)nn1CC(=O)c1ccc(F)cc1` [Compound 6h, Ethyl 1-[2-(4-fluorophenyl)-2-oxoethyl]-3,4-bis(4-methoxy-phenyl)-1H-pyrazole-5-carboxylate]: the melting point fell in the range of 104 to 105 °C. Further, the 50% growth inhibitory concentration (GI50) in [1] was 2.07 ± 1.45 µM. Moreover, in [2], the GI50 worked out at 4.76 ± 2.33 µM. The molecule also yielded a chromatographic logP in data set [3] of 4.531 ± 0.006. Moreover, in [4], the GI50 was 4.76 ± 2.33 µM. The molecule further had a free fraction (fraction unbound) in data set [5] of 0.062.

As to `CCOC(=O)c1c(-c2ccc(OC)cc2)c(-c2ccc(F)cc2)nn1CC(=O)c1ccccc1` [Compound 6l, Ethyl 3-(4-fluorophenyl)-4-(4-methoxyphenyl)-1-(2-oxo-2-phenylethyl)-1H-pyrazole-5-carboxylate], the melting point lay within 87 to 88 °C. Further, the GI50 in data set [1] amounted to 5.05 ± 1.16 µM. The 50% growth inhibitory concentration (GI50) in [2] is over 20 µM. The chromatographic logP in data set [3] stood at 4.499 ± 0.006. The GI50 in data set [4] amounted to 8.28 ± 2.34 µM.

`CCOC(=O)c1c(-c2ccc(OC)cc2)c(-c2ccc(F)cc2)nn1CC(=O)c1ccc(F)cc1` [Compound 6n, Ethyl 3-(4-fluorophenyl)-1-[2-(4-fluorophenyl)-2-oxoethyl]-4-(4-methoxyphenyl)-1H-pyrazole-5-carboxylate]: the melting point lay in the range of 81 to 82 °C. In data set [1], the GI50 was 2.1 ± 0.198 µM. In data set [2], the 50% growth inhibitory concentration (GI50) is 6.78 ± 0.463 µM. The same molecule gave a chromatographic logP in data set [3] of 4.564 ± 0.004. In data set [4], the GI50 was 1.64 ± 0.022 µM. This molecule showed a fraction unbound in data set [5] of 0.047.

Take `CCOC(=O)c1c(-c2ccc(F)cc2)c(-c2ccc(F)cc2)nn1CC(=O)c1ccc(F)cc1` [Compound 6o, Ethyl 3,4-bis(4-fluorophenyl)-1-[2-(4-fluorophenyl)-2-oxoethyl]-1H-pyrazole-5-carboxylate]: the melting point was in the range of 105 to 106 °C. The concentration for 50% growth inhibition (GI50) in data set [1] was 2.36 ± 0.039 µM. Further, the GI50 in data set [2] is 6.67 ± 2.12 µM. The chromatographic logP in data set [3] was 4.598 ± 0.004. The 50% growth inhibitory concentration (GI50) in data set [4] came out at 2.09 ± 0.032 µM. Also, the free fraction (fraction unbound) in [5] is 0.029.

Molecule `COC(=O)c1c(-c2ccccc2)c(-c2ccccc2)nn1CC(=O)c1ccccc1` [Compound 7a, Methyl 1-(2-oxo-2-phenylethyl)-3,4-diphenyl-1H-pyrazole-5-carboxylate] yielded a melting point of 138 to 139 °C. In data set [1], the GI50 was over 20 µM. For the same molecule, the GI50 in data set [2] was over 20 µM. This molecule displayed a chromatographic logP in [3] of 4.279 ± 0.005. For the same molecule, the GI50 in data set [4] was over 20 µM.

Consider `COC(=O)c1c(-c2ccccc2)c(-c2ccccc2)nn1CC(=O)c1ccc(OC)cc1` [Compound 7b, Methyl 1-[2-(4-methoxyphenyl)-2-oxoethyl]-3,4-diphenyl-1H-pyrazole-5-carboxylate], for which the melting point is 163 to 164 °C. Moreover, the GI50 in data set [1] is over 20 µM. The 50% growth inhibitory concentration (GI50) in [2] was over 20 µM. The same molecule yielded a chromatographic logP in data set [3] of 4.347 ± 0.007. Moreover, in [4], the concentration for 50% growth inhibition (GI50) was over 20 µM.
